The test system of series [1] is macropinocytosis. The series can be described thus: Intranodal RNA immunization after Rottlerin pretreatment of lymph nodes, tetramer measurement. It is filed as in vivo, C57Bl/6 mice. Conditions: SIINFEKL-coding RNA 20 μg intranodally d0 and d3; lymph nodes pretreated. Here is the method:
(e) C57Bl/6 mice (n=3) were immunized intranodally on d0 and d3 with […]-coding RNA (20 μg). On both days the lymph nodes were pretreated with Rottlerin as described above. On day 8 the success of immunization was quantified by tetramer measurement in the peripheral blood. The success of intranodal RNA immunization correlated directly with the ability of cells to take up RNA by macropinocytosis.
To verify whether the in vivo inhibition of macropinocytosis has an effect on the efficiency of T cell priming after intranodal RNA immunization, C57/B16 mice (n=3) were immunized intranodally on d0 and d3 with […]-coding RNA (20 μg). On both days the lymph nodes were pretreated with Rottlerin as described above. The mean+SEM of the frequency of CD8+ antigen-specific T lymphocytes is shown. […] FIG. 6(e).
The main uptake mechanism of RNA uptake is macropinocytosis.

For series [2], the system named is macropinocytosis. The series can be described thus: RNA uptake in lymph nodes after in vivo Rottlerin pretreatment, in-vivo bioluminescence. Set-up: species or system C57Bl/6 mice. Conditions: inguinal lymph nodes pretreated with 10 μM; luciferase-RNA 10 μg intranodally; 24 h. How it is done: To clarify whether macropinocytosis is also the uptake mechanism relevant in vivo for RNA in the lymph node, the inguinal lymph nodes of C57/B16 mice were pretreated with Rottlerin (n=4, 10 μM) and then luciferase-RNA (10 μg) was injected intranodally. After 24 h, the in-vivo bioluminescence signal was measured.

Another series relates to human iDCs. The series can be described thus: RNA uptake by human iDCs pretreated with macropinocytosis inhibitors, luciferase test. It is filed as cell-based. Particulars: 15 min luciferase-RNA or Cy3-RNA. How it is done: (b-c) Human iDCs were pretreated with various inhibitors (dimethyl amiloride, cytochalasin D, LY294002, Rottlerin) and then coincubated for 15 min with luciferase-RNA or Cy3-RNA. After 24 h the luciferase signal was quantified in a standard luminescence test.
To verify whether the macropinocytosis constitutively active in iDCs is relevant for the uptake of naked RNA, human iDCs were pretreated with various inhibitors (dimethyl amiloride, cytochalasin D, LY294002, Rottlerin) and then coincubated for 15 min with luciferase-RNA or Cy3-RNA. After culture for a further 22 h, RNA uptake was quantified in a luciferase test. The mean+SEM is shown. The iDCs coincubated with Cy3-RNA (red) were fixed with paraformaldehyde and counterstained (Hoechst 33342, blue). […] FIG. 6(b-c).

Series [3] concerns RNA uptake in the lymph nodes. As to the kind of experiment: Effect of Poly I:C on RNA uptake in lymph nodes, in-vivo bioluminescence. Set-up: species or system C57Bl/6 mice. Particulars: 20 μg s.c.; luciferase-RNA intranodally after 2 or 24 h. How it is done:
(e) Effect of Poly I:C on RNA uptake. C57Bl/6 mice (n=4) were injected s.c. with PBS or Poly I:C (20 μg) and after 2 or 24 h, luciferase-RNA was applied intranodally. After 24 h the luciferase signal was quantified in a standard bioluminescence test.
In order to verify to what extent maturing adjuvants can also lead in vivo to a reduction of RNA uptake, we tested the effect of Poly I:C on RNA uptake; cf. FIG. 7(e). For this, C57/Bl6 mice (n=4) were injected s.c. with PBS or Poly I:C (20 μg) and after 2 or 24 h, luciferase-RNA was applied intranodally. The in-vivo bioluminescence was measured after a further 24 h. The mean+SEM is shown.

The subject of series [4] is cell populations of the murine lymph node. As to the kind of experiment: Effects of different Flt3L on the cellular composition in lymph nodes. It is filed as in vivo, C57BL/6 mice. Particulars: 0.4 mol i.p. day 0; lymph nodes day 10. The text has this: On day 10 the lymph nodes of the mice were removed and characterized by flow cytometry. Dendritic cells (DCs (marker: CD11c^+/NK1.1^−)), CD4^+ helper T cells (marker: CD3^+/CD4^+/CD8^−/NK1.1^−), CD8^+ T cells (marker: CD3^+/CD8^+/CD4^−/NK1.1^−), CD19^+ B cells (marker: CD19^+/CD3^−/NK1.1^−).
In this experiment Flt3 ligand (Flt3-IgG4) was compared with commercially available Flt3 preparations with respect to the effect on different cell populations of the murine lymph node. A product recombinantly expressed in bacteria (Peprotech Flt3L; Peprotech, Hamburg, Germany) and a product expressed in human HEK293 cells (Humanzyme Flt3L, Humanzyme; Chicago Ill., U.S.A.) were used as commercially available Flt3 preparations. Human IgG4 (Sigma-Aldrich, Deisenhofen, Germany) served as control.
On day 10 both inguinal lymph nodes of the mice were removed, the cell count determined by means of a Neubauer chamber and the cell populations were characterized by flow cytometry.

For series [5] the following is noted: Robinson et al., 2003; cited from earlier work.

Regarding `CC(=O)c1c(O)c(C)c(O)c(Cc2c(O)c3c(c(C(=O)/C=C/c4ccccc4)c2O)OC(C)(C)C=C3)c1O` [Rottlerin], in the series on macropinocytosis [1], the “vaccine action after inhibition of macropinocytosis” value was “almost complete loss of vaccine action”. In addition, the “RNA uptake in the lymph node” value in the series on macropinocytosis [2] is given as “drastically reduced”. Also, in the series with human iDCs, the “inhibition of RNA uptake” value was “more than 90%”.

Turning to Poly I:C, the “RNA uptake (in-vivo bioluminescence)” value in series [3] is on record as “sharp reduction in RNA uptake”.

B1: Flt3L (Humanzyme): commercially available Flt3 preparation expressed in human HEK293 cells (Humanzyme) (protein, UniProt P49771 27-235, looked up)
Fms-related tyrosine kinase 3 …: TQDCSFQHSPISSDFAVKIRELSDYLLQDYPVTVASNLQDEELCGGLWRLVLAQRWMERLKTVAGSKMQGLLERVNTEIHFVTKCAFQPPPSCLRFVQTNISRLLQETSEQLVALKPWITRQNFSRCLELQCQPDSSTLPPPWSPRPLEATAPTAPQPPLLLLLLLPVGLLLLAAAWCLHWQRTRRRTPRPGEQVPPVPSPQDLLLVEH
In the case of B1, the “expansion of dendritic cells” value in series [4] is on record as “strong similarity”.

B2: Flt3L (Peprotech): commercially available Flt3 preparation recombinantly expressed in bacteria (Peprotech) (protein, UniProt P49771 27-235, looked up)
Fms-related tyrosine kinase 3 …: B1 Fms-related tyrosine kinase 3 …
Regarding B2, the “expansion of dendritic cells” value in series [4] is given as “only slightly potent”.

B3: Flt3L without IgG4 fusion: Flt3L without IgG4 fusion, published half-life value (Robinson et al., 2003) (protein, UniProt P49771 27-235, looked up)
Fms-related tyrosine kinase 3 …: B1 Fms-related tyrosine kinase 3 …
Take B3: the “published value for the half-life” value in series [5] was 5 h.
